Test system in the first data set: not listed separately
The data set is described as follows: Cytotoxic evaluation on HepG2 cell line (MTT, 72 h). As to conditions: HepG2 cells (hepatocarcinoma cell line, ATCC HB-8065); human hepatoma cell line HepG2, MTT, 72 h, mean ± SD of three independent experiments. In kind it is cell-based, human. On the procedure:
(§1) The HepG2 cell line (hepatocarcinoma cell line purchased from ATCC, ref HB-8065) was maintained at 37 °C, 5% CO2, with 90% humidity in MEM supplemented with 10% fetal bovine serum, 1% L-glutamine (200 mM), penicillin (100 U/mL), and streptomycin (100 μg/mL) (complete MEM medium). The evaluation of the cytotoxicity of the tested molecules was performed according to the method of Mosmann, with slight modifications. Briefly, 5.103 cells in 100 μL of the complete medium were inoculated into each well of a 96-well plate and incubated at 37 °C in a humidified 5% CO2. After 24 h incubation, 100 μL of medium with various product concentrations dissolved in DMSO (final concentration less than 0.5% v/v) was added and the plates were incubated for 72 h at 37 °C. Triplicate assays were performed for each sample. Each plate well was then microscope-examined for detecting possible precipitate formation before the medium was aspirated from the wells. A total of 100 μL of MTT (3-(4,5-dimethyl-2-thiazolyl)-2,5-diphenyl-2H-tetrazolium bromide) solution (0.5 mg/mL in medium without FCS) was then added to each well. Cells were incubated for 2 h at 37 °C. After this time, the MTT solution was removed and DMSO (100 μL) was added to dissolve the resulting blue formazan crystals. Plates were shaken vigorously (700 rpm) for 10 min. The absorbance was measured at 570 nm, with 630 nm as a reference wavelength using a TECAN Infinite F-200 Microplate Reader. DMSO was used as a blank and doxorubicin (purchased from Sigma Aldrich, St. Louis, MO, USA) was used as a positive control. Cell viability was calculated as a percentage of control (cells incubated without compound). The 50% cytotoxic concentration (CC50) was determined from the dose–response curve by using the TableCurve software 2D v.5.0. CC50 values represent the mean value calculated from three independent experiments.
In the case of `CCCNc1nc(NC(C)(C)C)nc2cc(-c3ccc(C)cc3)sc12` [Compound 10d, N^2-(tert-butyl)-N^4-propyl-6-(p-tolyl)thieno[3,2-d]pyrimidine-2,4-diamine], the CC50 at 72 h is 3.7 ± 0.3 µM.

On to `CNc1nc(NC(C)(C)C)nc2cc(-c3ccc(C)cc3)sc12` [Compound 10c, N^2-(tert-butyl)-N^4-methyl-6-(p-tolyl)thieno[3,2-d]pyrimidine-2,4-diamine], for which the CC50 at 72 h is 3.7 ± 0.6 µM.

Regarding `Cc1ccc(-c2cc3nc(NC(C)(C)C)nc(N)c3s2)cc1` [Compound 10a, N^2-(Tert-butyl)-6-(p-tolyl)thieno[3,2-d]pyrimidine-2,4-diamine], the CC50 at 72 h was determined as 12.1 ± 4.1 µM.

`Cc1ccc(-c2cc3nc(NC(C)(C)C)nc(Cl)c3s2)cc1` [Compound 5, N-(Tert-butyl)-4-chloro-6-(p-tolyl)thieno[3,2-d]pyrimidin-2-amine] gave a CC50 at 72 h of 16.4 ± 5.4 µM.

A further data set has as its system HepG2. The description is as above. In kind it is cell-based, human. Conditions: toxicity on HepG2 versus EC50 against the erythrocytic stage of P. falciparum. The method, then:
as §1
`Cc1ccc(-c2cc3nc(NC(C)(C)C)nc(Cl)c3s2)cc1` [Compound 5, N-(Tert-butyl)-4-chloro-6-(p-tolyl)thieno[3,2-d]pyrimidin-2-amine]: the selective index came out at 54.7.

Test system in a further data set: not listed separately
The data set is described as follows: Cytotoxicity on primary simian hepatocytes (DAPI count of host cell nuclei). The data set is classed as cell-based, Macaca fascicularis. As to conditions: Macaca fascicularis, count of total cell nuclei, mean ± SD of three independent experiments. The method, then:
(§2) Primary simian hepatocytes were isolated from liver segments collected from healthy Macaca fascicularis from CEA, Fontenay aux Roses, France. All hepatocytes were obtained using collagenase perfusion, as previously described, and were immediately cryopreserved. One day before infection, the cryopreserved hepatocytes were thawed at 37 °C and were seeded into collagen-coated (5 µg/cm^2 rat tail collagen I, Invitrogen, Carlsbad, CA, USA) 96-well plate, at a density of 80,000 cells per well. They were cultured at 37 °C in 5% CO2 in William’s E medium (Gibco, Life Technologies, Saint Aubin, France) supplemented with 10% of Fetal Bovine Serum FCIII, 5 × 10^–5 M hydrocortisone hemisuccinate (Serb Laboratories, Paris, France), 5 μg per ml bovine insulin (Sigma Aldrich, St. Louis, MO, USA), 2 mM L-glutamine, and 0.02 U per ml-0.02 μg per ml penicillin-streptomycin (Life Technologies) until infection with sporozoites.
(§3) Sporozoites of P. berghei were re-suspended in the above complete medium used for the hepatocytes culture. Simian hepatocytes were inoculated in 50 μL of complete media with 20,000 P. berghei-sporozoites/well in 96-well plates. The infected culture plates were centrifuged for 10 min at 900× g to allow fast parasite sedimentation onto the target cells and were further incubated with the serial dilution of drugs that were prepared in advance. After 3 h of incubation, cultures were washed and further incubated in a fresh medium containing the appropriate drug concentration, which were changed every 24 h during the study period. Cultured hepatocytes were fixed using 4% paraformaldehyde (PFA) for 15 min at room temperature. Host cell and parasite nuclei were labelled with 4′,6-diamidino-2-phenylindole (DAPI). Upon fixation and immunostaining, cell culture plates were analyzed in order to determine the number and size of the parasites using a Cell Insight High Content Screening platform equipped with the Studio HCS software (Thermo Fisher Scientific, Waltham, MA, USA). The parasite size reduction was calculated on the average object area using the total surface area of each selected object (μm^2). To assess the cell toxicity of drugs for hepatic cultures, fixed plates were further scanned for the DAPI signal representing host nuclei. The analysis was based on counting of total cell nuclei. GraphPad Prism 7 statistical software (GraphPad. Software, San Diego, CA, USA) was used for data analysis and graphing. All values were expressed as means and standard deviations (SD).
In the case of `CCCNc1nc(NC(C)(C)C)nc2cc(-c3ccc(C)cc3)sc12` [Compound 10d, N^2-(tert-butyl)-N^4-propyl-6-(p-tolyl)thieno[3,2-d]pyrimidine-2,4-diamine], the midpoint of cytotoxicity, the CC50, lay at 22 ± 2.8 µM.

In turn, `CNc1nc(NC(C)(C)C)nc2cc(-c3ccc(C)cc3)sc12` [Compound 10c, N^2-(tert-butyl)-N^4-methyl-6-(p-tolyl)thieno[3,2-d]pyrimidine-2,4-diamine] registered a CC50 of 31.5 ± 6.8 µM.

The compound `Cc1ccc(-c2cc3nc(NC(C)(C)C)nc(N)c3s2)cc1` [Compound 10a, N^2-(Tert-butyl)-6-(p-tolyl)thieno[3,2-d]pyrimidine-2,4-diamine] yielded a CC50 greater than 50 µM.

Compound `Cc1ccc(-c2cc3nc(NC(C)(C)C)nc(Cl)c3s2)cc1` [Compound 5, N-(Tert-butyl)-4-chloro-6-(p-tolyl)thieno[3,2-d]pyrimidin-2-amine] had a CC50 greater than 100 µM.

The next data set relates to P. berghei. The data set is described as follows: Hepatic-stage antiplasmodial evaluation (PbGFP sporozoites in primary simian hepatocytes, high content imaging). In kind it is cell-based. Conditions: Plasmodium berghei, Hepatocyte, mean ± SD of three independent experiments.
Excerpt: P. berghei sporozoites constitutively expressing green fluorescent protein (PbGFP, ANKA strain) were obtained by the dissection of salivary glands from infected Anopheles stephensi mosquitoes bred and infected in the insectary facilities of UMR-S 1135 (CIMI, Paris, France). Infected salivary glands were removed by hand dissection, crushed in a potter, and filtered through a 40 μm filter for sporozoite isolation (Cell Strainer, BD BioSciences, San Jose, CA, USA). The sporozoites were counted using a disposable plastic microscope slide (KOVA).
as §2, §3
The compound `CCCNc1nc(NC(C)(C)C)nc2cc(-c3ccc(C)cc3)sc12` [Compound 10d, N^2-(tert-butyl)-N^4-propyl-6-(p-tolyl)thieno[3,2-d]pyrimidine-2,4-diamine] returned an EC50 of roughly 5 µM.

`CNc1nc(NC(C)(C)C)nc2cc(-c3ccc(C)cc3)sc12` [Compound 10c, N^2-(tert-butyl)-N^4-methyl-6-(p-tolyl)thieno[3,2-d]pyrimidine-2,4-diamine] registered an EC50 of roughly 5 µM.

`Cc1ccc(-c2cc3nc(NC(C)(C)C)nc(N)c3s2)cc1` [Compound 10a, N^2-(Tert-butyl)-6-(p-tolyl)thieno[3,2-d]pyrimidine-2,4-diamine] yielded a concentration for a half-maximal effect (EC50) of 70.7 ± 9.7 µM.

Turning to `Cc1ccc(-c2cc3nc(NC(C)(C)C)nc(Cl)c3s2)cc1` [Compound 5, N-(Tert-butyl)-4-chloro-6-(p-tolyl)thieno[3,2-d]pyrimidin-2-amine], the EC50 is roughly 15 µM.

Staying with this data set, now noted: mean ± SD of three independent experiments.
Turning to `CCCNc1nc(NC(C)(C)C)nc2cc(-c3ccc(C)cc3)sc12` [Compound 10d, N^2-(tert-butyl)-N^4-propyl-6-(p-tolyl)thieno[3,2-d]pyrimidine-2,4-diamine], the EC50 came to 7.1 ± 1.4 µM.

As to `CNc1nc(NC(C)(C)C)nc2cc(-c3ccc(C)cc3)sc12` [Compound 10c, N^2-(tert-butyl)-N^4-methyl-6-(p-tolyl)thieno[3,2-d]pyrimidine-2,4-diamine], the EC50 amounted to 4.6 ± 5.7 µM and the “P. berghei EC50” value is “most active”.

Consider `Cc1ccc(-c2cc3nc(NC(C)(C)C)nc(N)c3s2)cc1` [Compound 10a, N^2-(Tert-butyl)-6-(p-tolyl)thieno[3,2-d]pyrimidine-2,4-diamine], for which the “P. berghei EC50” value is recorded as “not active”.

Compound `Cc1ccc(-c2cc3nc(NC(C)(C)C)nc(Cl)c3s2)cc1` [Compound 5, N-(Tert-butyl)-4-chloro-6-(p-tolyl)thieno[3,2-d]pyrimidin-2-amine] came in with an EC50 of 16.5 ± 8 µM.

For another data set, the system named is P. falciparum K1. The data set is described as follows: Blood-stage antiplasmodial evaluation (SYBR Green I fluorescence, 72 h). The data set is classed as cell-based, Plasmodium falciparum. As to conditions: Plasmodium falciparum, K1, 72 h, asexual blood stages, drug-resistant K1 strain, 72 h incubation, mean ± SD of three independent experiments; read-out: P. falciparum K1 EC50. The method, then: A K1 culture-adapted P. falciparum strain resistant to chloroquine, pyrimethamine, and proguanil was used in an in vitro culture. It was maintained in a continuous culture, as described previously by Trager and Jensen. Cultures were maintained in fresh A+ human erythrocytes at 2.5% hematocrit in a complete medium (RPMI 1640 with 25 mM HEPES, 25 mM NaHCO3, and 10% of A+ human serum) at 37 °C under a reduced O2 atmosphere (gas mixture: 10% O2, 5% CO2, and 85% N2). Parasitemia was maintained daily between 1 and 3%. The P. falciparum drug susceptibility test was carried out by comparing quantities of DNA in treated and control cultures of parasite in human erythrocytes, according to a SYBR Green I fluorescence-based method using a 96-well fluorescence plate reader. Compounds, previously dissolved in DMSO (final concentration less than 0.5% v/v), were incubated in a total assay volume of 200 μL (RPMI, 2% hematocrit and 0.4% parasitemia) for 72 h in a humidified atmosphere (10% O2 and 5% CO2) at 37 °C, in 96-well flat bottom plates. Duplicate assays were performed for each sample. After incubation, plates were frozen at […] for 24 h. Then, the frozen plates were thawed for 1 h at 37 °C. A total of 15 μL of each sample was transferred to 96-well flat-bottom non-sterile black plates (Greiner Bio-One, Kremsmünster, Austria) already containing 15 μL of the SYBR Green I lysis buffer (2X SYBR Green I, 20 mM Tris base pH 7.5, 20 mM EDTA, 0.008% w/v saponin, 0.08% w/v Triton X-100). Negative control treated by solvents (DMSO or H2O) and positive controls (chloroquine) were added to each set of experiments. Plates were incubated for 15 min at 37 °C and then read on a TECAN Infinite F-200 spectrophotometer with excitation and emission wavelengths at 485 and 535 nm, respectively. The concentrations of compounds required to induce a 50% decrease in parasite growth (EC50 K1) were calculated from three independent experiments.
As to `CCCNc1nc(NC(C)(C)C)nc2cc(-c3ccc(C)cc3)sc12` [Compound 10d, N^2-(tert-butyl)-N^4-propyl-6-(p-tolyl)thieno[3,2-d]pyrimidine-2,4-diamine], the EC50 turned out to be 1.1 ± 0.2 µM.

For `CNc1nc(NC(C)(C)C)nc2cc(-c3ccc(C)cc3)sc12` [Compound 10c, N^2-(tert-butyl)-N^4-methyl-6-(p-tolyl)thieno[3,2-d]pyrimidine-2,4-diamine], the EC50 stood at 1 ± 0.4 µM.

As for `Cc1ccc(-c2cc3nc(NC(C)(C)C)nc(N)c3s2)cc1` [Compound 10a, N^2-(Tert-butyl)-6-(p-tolyl)thieno[3,2-d]pyrimidine-2,4-diamine], the EC50 was less than 2 µM.

Staying with this data set, now noted: asexual blood stages, drug-resistant K1 strain, 72 h incubation, mean ± SD of three independent experiments.
`CCCNc1nc(NC(C)(C)C)nc2cc(-c3ccc(C)cc3)sc12` [Compound 10d, N^2-(tert-butyl)-N^4-propyl-6-(p-tolyl)thieno[3,2-d]pyrimidine-2,4-diamine]: the “P. falciparum K1 EC50” value is on record as “micromolar range”.

As for `CNc1nc(NC(C)(C)C)nc2cc(-c3ccc(C)cc3)sc12` [Compound 10c, N^2-(tert-butyl)-N^4-methyl-6-(p-tolyl)thieno[3,2-d]pyrimidine-2,4-diamine], the “P. falciparum K1 EC50” value was “micromolar range”.

For the compound `Cc1ccc(-c2cc3nc(NC(C)(C)C)nc(N)c3s2)cc1` [Compound 10a, N^2-(Tert-butyl)-6-(p-tolyl)thieno[3,2-d]pyrimidine-2,4-diamine], the “P. falciparum K1 EC50” value was “micromolar range”.

Consider `Cc1ccc(-c2cc3nc(NC(C)(C)C)nc(Cl)c3s2)cc1` [Compound 5, N-(Tert-butyl)-4-chloro-6-(p-tolyl)thieno[3,2-d]pyrimidin-2-amine], for which the “P. falciparum K1 EC50” value was “submicromolar range”.

Staying with this data set, now noted: asexual blood stages, drug-resistant K1 strain, 72 h incubation, mean ± SD of three independent experiments; read-out: P. falciparum K1 EC50.
As for `Cc1ccc(-c2cc3nc(NC(C)(C)C)nc(N)c3s2)cc1` [Compound 10a, N^2-(Tert-butyl)-6-(p-tolyl)thieno[3,2-d]pyrimidine-2,4-diamine], the EC50 was 1.4 ± 0.6 µM.
